66 compounds from PubChem BioAssay AID1902 (Broad Institute, 2009) can be followed below.

Calls of active or inactive are those of the source.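 The calls were made as follows: active = EC50 no more than a set limit of log units above the highest dose; inactive = the rest.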

In general, EC50 refers to the concentration that produces a half-maximal response.

This assay has as its target S. pyogenes SKKanGAS, kanamycin survival, BacTiterGlo, 6 h. As to the kind of experiment: SKKanGAS survival reduction under kanamycin, dose response, streptokinase promoter inhibitor project, SKKanGAS strain, luminescence, dose confirmation (AID 1902).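 Also: lower survival reflects blocked streptokinase promoter driving kanamycin resistance gene.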

With `Cc1ccc(Oc2ccc3c(c2)C(=O)N(c2ccc(S(=O)(=O)Nc4nccs4)cc2)C3=O)cc1`, the EC50 is 3.06 µM.

Regarding `COc1ccc(C(=O)c2c(C(F)(F)F)oc3c2C(=O)c2ccccc2C3=O)cc1OC`, the EC50 is 0.746 µM.

As to `CN(C)CCNC=C(C(=O)Nc1ccc(Cl)cc1Cl)C(=O)Nc1ccc(Cl)cc1Cl`, the EC50 is 3.38 µM.

`O=[N+]([O-])/C=C/c1c(OCc2ccccc2)ccc2ccccc12`: the EC50 is 1.63 µM.

With `Cc1ccc(O)c(/C=N/NC(=O)Cc2ccc(Cl)cc2)c1`, the EC50 is 2.78 µM.

For `CC(C)=CCC/C(C)=C/Cc1c(O)ccc(C(=O)/C=C/c2ccc(O)cc2)c1O`, the EC50 was 1.02 µM.

`CN(Cc1ccc(N(C)C)cc1)C(=O)c1cc2ccccc2o1`: the EC50 is > 15 µM (inactive).

Turning to `COc1ccccc1-c1nnc(NC(=O)CCS(=O)(=O)c2ccccc2)o1`, the EC50 was > 15 µM (inactive).

As for `CCOC(=O)C1=C(C)N=c2s/c(=C\c3ccc(O)c([N+](=O)[O-])c3)c(=O)n2C1c1ccccc1OC` (stereo unspecified), the half-maximal effective concentration (EC50) was 6.9 µM.

As to `Cc1ccc(-c2csc(-c3c[nH]c4ccccc34)n2)c(C)c1`, the EC50 was 6.03 µM.

Take `COC(=O)C1N2C(=O)[C@@H](NC(=O)COc3ccccc3)[C@H]2SC1(C)C` (stereo partly specified): the EC50 was 0.377 µM.

On to `CCOc1ccc(NC(=S)N=Nc2c(O)[nH]c3ccccc23)cc1`, for which the 50% effective concentration (EC50) is 0.525 µM.

For the compound `CCC(=O)Oc1ccc(-c2nc(-c3cccnc3)no2)cc1`, the EC50 is 4.3 µM.

On to `Fc1ccccc1CNc1ccc(Cl)c(Cl)c1`, for which the EC50 is 15.6 µM.

Turning to `O=C(NCc1ccccn1)Nc1ccc(F)c(Cl)c1`, the EC50 was > 15 µM (inactive).

For `COc1ccc(C(=O)CC(=O)C(=O)Nc2ccccc2C(F)(F)F)cc1`, the EC50 was 2.05 µM.

As for `CCOC(=O)C1=C(C)N=c2s/c(=C/c3ccc(OCC(=O)O)c(OC)c3)c(=O)n2C1c1ccc(Cl)cc1` (stereo unspecified), the EC50 is 5 µM.

Consider `O=C(Nc1cc(Cl)ccc1-n1cncn1)c1ccc([N+](=O)[O-])o1`, for which the EC50 was 6.73 µM.

On to `CC(CNC(=S)Nc1cc(F)cc(F)c1)CSc1ccc(Cl)cc1` (stereo unspecified), for which the EC50 was 8.56 µM.

With `Cc1cc(C)c2sc(NNC(=O)c3ccc(S(=O)(=O)N4CCc5ccccc5C4)cc3)nc2c1`, the EC50 is 1.06 µM.

Consider `CC1CCc2c(sc3nc(C4CC4)nc(N4CCN(C(=O)c5ccco5)CC4)c23)C1` (stereo unspecified), for which the EC50 is 3.84 µM.

As to `O=C(Nc1nnc(-c2ccccc2)o1)c1ccc(Cl)cc1`, the EC50 is 0.254 µM.

`CCOC(=O)c1c(NS(=O)(=O)c2ccc(Br)cc2)sc2c1CCC2`: the half-maximal effective concentration (EC50) is 1.6 µM.

Regarding `CCOC(=O)c1csc(N/N=C2\CCCc3ccccc32)n1`, the EC50 is 11 µM.

Consider `c1ccc(-c2nc(N3CCCCCC3)c3ccccc3n2)nc1`, for which the EC50 was 1.43 µM.

As to `Cc1[nH]nc(Nc2ccc(C(C)C)cc2)c1[N+](=O)[O-]`, the EC50 was 13.8 µM.

For the compound `O=C(N/N=C/c1c(O)n(C2CCCCC2)c(=S)[nH]c1=O)c1ccccc1`, the EC50 was 0.659 µM.

Consider `CC(=O)Nc1ccc(NC(=O)CSc2nnc(NC(=O)c3ccc(Br)o3)s2)cc1`, for which the EC50 is 2.68 µM.

Consider `Cc1ccnc(NS(=O)(=O)c2ccc(NC(=O)c3cc(-c4ccc(Br)cc4)nc4ccccc34)cc2)n1`, for which the EC50 was 3.34 µM.

With `O=C(/C=C/c1ccccc1)NC(NC(=S)Nc1cccc(Cl)c1)C(Cl)(Cl)Cl` (stereo unspecified), the EC50 was 1.85 µM.

For `COC(=O)c1cc(C(=O)Nc2nc3ccccc3[nH]2)cc([N+](=O)[O-])c1`, the EC50 was 8.85 µM.

On to `CCOc1cccc(/C=N/NC(=O)c2ccc3c(c2)OCCO3)c1O`, for which the EC50 was 1.27 µM.

As for `CC(C)n1cnc2c(NCc3ccccc3)nc(NCc3ccccc3)nc21`, the EC50 was 3.06 µM.

Regarding `COc1ccc(C(=O)NC(=S)NNC(=O)c2ccccc2O)cc1`, the EC50 is 1.44 µM.

Regarding `Oc1ccc(-c2c(C3=CCCCC3)sc3ccccc23)cc1`, the 50% effective concentration (EC50) is 4.97 µM.

`O=C(c1cc(-c2ccccc2)n[nH]1)N1CCc2c([nH]c3ccccc23)C1c1ccccn1` (stereo unspecified): the EC50 is 5.23 µM.

Turning to `O=[N+]([O-])c1cc(Br)c(O)c(/C=N/Nc2nnnn2-c2cccc3ccccc23)c1`, the EC50 was 5.44 µM.

Regarding `COc1cccc(/C=N/Nc2nc(Nc3ccc([N+](=O)[O-])cc3)nc(N3CCCC3)n2)c1O`, the EC50 was 1.18 µM.

With `Cc1cccc(Cn2nc(C(C)(C)C)cc2C(=O)Nc2ccc(F)cc2)c1`, the EC50 was 3.95 µM.

Take `COc1ccc(OCCn2c(NC(=O)c3ccco3)nc3ccccc32)cc1`: the EC50 was 3.38 µM.

Take `CCOC(=O)/C(=N\Nc1ccc(OC)cc1)c1csc(Nc2ccccc2)n1`: the EC50 is 2.45 µM.

In the case of `COc1cccc(N=Nc2ccc3cccnc3c2O)c1`, the half-maximal effective concentration (EC50) is less than 0.06 µM.

For the compound `COC(=O)c1ccc(CSc2n[nH]c(=S)s2)o1`, the EC50 was 3.25 µM.

`CCCCCCCCCCC[N+](C)(C)CC/C=C1/c2ccccc2Sc2ccc(Cl)cc21`: the EC50 is 2.4 µM.

For the compound `COC(C(=O)Nc1ccnn1C1CCN(Cc2nccs2)CC1)c1ccccc1` (stereo unspecified), the EC50 is > 15 µM (inactive).

As for `Oc1ccc(Cl)cc1C1=NNC(c2ccc(Cl)cc2)C1` (stereo unspecified), the EC50 was 1.1 µM.

For `CC[C@H]1OC(=O)[C@H](C)[C@@H](O[C@H]2C[C@@](C)(OC)[C@@H](O)[C@H](C)O2)[C@H](C)[C@@H](O[C@@H]2O[C@H](C)C[C@H](N(C)C)[C@H]2O)[C@](C)(O)C[C@@H](C)C(=O)[C@H](C)[C@@H](O)[C@]1(C)O`, the EC50 is less than 0.06 µM.

Take `S=c1[nH]nc(C2CCCCC2)n1/N=C/c1c(Cl)cccc1Cl`: the EC50 was 8.36 µM.

Regarding `CCn1cc(C(=O)O)c(=O)c2cc(F)c(N/N=C/c3ccccc3[N+](=O)[O-])cc21`, the EC50 was 4.39 µM.

`CCn1ccnc1CN1CCc2c([nH]c3ccccc23)C1C1CCCCC1` (stereo unspecified): the EC50 is 2.02 µM.

In the case of `CNC(=S)N/N=C/c1cn(Cc2ccc(C)cc2)c2ccccc12`, the EC50 is 5.33 µM.

With `Oc1c(CN2CCN(c3ccccn3)CC2)cc(Cl)c2cccnc12`, the EC50 is 5.58 µM.

For the compound `CC(C)c1ccc(-n2c(O)c(/C=N/NC(=O)c3ccccc3O)c(=O)[nH]c2=S)cc1`, the EC50 was 7 µM.

As to `Cc1csc(NC(=O)COCC(=O)O)c1-c1nc2ccccc2s1`, the EC50 is 6.45 µM.

Turning to `CCN=C1S/C(=C\c2ccc(-c3cccc(C(=O)O)c3)o2)C(=O)N1CC`, the EC50 is 3.4 µM.

Take `CCOC(=O)C1=C(O)c2ccccc2C(=O)/C1=C\c1ccc(CC)cc1`: the EC50 was 8.49 µM.

Turning to `COCc1cc(=O)[nH]c(Nc2nc3ccccc3o2)n1`, the concentration giving a half-maximal response (EC50) is 2.66 µM.

As to `O=C(O)C(c1ccccc1)N1C(=O)/C(=C\c2ccc(-c3ccc(Br)cc3)o2)SC1=S` (stereo unspecified), the EC50 was 1.27 µM.

Take `CC(C)c1c(C(=O)N/N=C/c2cccc(OCc3ccc(F)cc3)c2)nnn1-c1nonc1N`: the EC50 was 5.19 µM.

On to `COC(=O)[C@H]1[C@H](CCc2ccccc2)NC(=O)N(Cc2ccccc2)[C@@H]1C`, for which the EC50 is > 15 µM (inactive).

In the case of `COC(=O)c1ccc(/C=C/c2ccc3cccc(OC(C)=O)c3n2)cc1`, the EC50 was 1.18 µM.

For `CCC(C(=O)NCC1CCCO1)n1nc(C)c2sc3ccccc3c2c1=O` (stereo unspecified), the EC50 was > 15 µM (inactive).

Regarding `COc1ccc(C(=O)/C=C/c2ccc(O)cc2)c(O)c1CC=C(C)C`, the EC50 was 2.14 µM.

With `CC(=O)N(CCC(Cc1ccccc1)c1ccc2c(c1)OCO2)Cc1ccc(Cl)cc1` (stereo unspecified), the EC50 is 3.42 µM.

As for `Cc1ccc2nc(Nc3nc(-c4ccccc4)cc(=O)[nH]3)nc(C)c2c1`, the EC50 was 2.64 µM.

As to `O=C(Nc1ccc(Cl)c(Cl)c1)N1CC=C(c2ccccc2)CC1`, the EC50 is 8.08 µM.
